Results published in patent US20230312528A1, “2-OXO-IMIDAZOLIDINE-4-CARBOXAMIDES AS NAV1.8 INHIBITORS” (Merck Sharp & Dohme LLC, priority 2020, published 2023).

What follows are compounds tested against human NaV1.8 (Homo sapiens (Human), UniProt Q9Y5Y9) (assay: Nav1.8 Qube automated patch-clamp assay). Conditions: human NaV1.8 stably expressed in HEK 293 cells; automated 384-well patch-clamp; resting or inactivated state not specified.
Type: cell-based
Method in brief: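 IC50 values from Hill-equation fits of offline percent inhibition: the 1st pulse gave resting and the 10th pulse inactivated-state inhibition. Stimulus was a 10 s, 1 Hz train to 10 mV (holding −90 mV, −67 mV interpulse) applied at room temperature to HEK293 cells stably expressing human NaV1.8 (Qube).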

Sequence of human NaV1.8 (Q9Y5Y9 whole entry): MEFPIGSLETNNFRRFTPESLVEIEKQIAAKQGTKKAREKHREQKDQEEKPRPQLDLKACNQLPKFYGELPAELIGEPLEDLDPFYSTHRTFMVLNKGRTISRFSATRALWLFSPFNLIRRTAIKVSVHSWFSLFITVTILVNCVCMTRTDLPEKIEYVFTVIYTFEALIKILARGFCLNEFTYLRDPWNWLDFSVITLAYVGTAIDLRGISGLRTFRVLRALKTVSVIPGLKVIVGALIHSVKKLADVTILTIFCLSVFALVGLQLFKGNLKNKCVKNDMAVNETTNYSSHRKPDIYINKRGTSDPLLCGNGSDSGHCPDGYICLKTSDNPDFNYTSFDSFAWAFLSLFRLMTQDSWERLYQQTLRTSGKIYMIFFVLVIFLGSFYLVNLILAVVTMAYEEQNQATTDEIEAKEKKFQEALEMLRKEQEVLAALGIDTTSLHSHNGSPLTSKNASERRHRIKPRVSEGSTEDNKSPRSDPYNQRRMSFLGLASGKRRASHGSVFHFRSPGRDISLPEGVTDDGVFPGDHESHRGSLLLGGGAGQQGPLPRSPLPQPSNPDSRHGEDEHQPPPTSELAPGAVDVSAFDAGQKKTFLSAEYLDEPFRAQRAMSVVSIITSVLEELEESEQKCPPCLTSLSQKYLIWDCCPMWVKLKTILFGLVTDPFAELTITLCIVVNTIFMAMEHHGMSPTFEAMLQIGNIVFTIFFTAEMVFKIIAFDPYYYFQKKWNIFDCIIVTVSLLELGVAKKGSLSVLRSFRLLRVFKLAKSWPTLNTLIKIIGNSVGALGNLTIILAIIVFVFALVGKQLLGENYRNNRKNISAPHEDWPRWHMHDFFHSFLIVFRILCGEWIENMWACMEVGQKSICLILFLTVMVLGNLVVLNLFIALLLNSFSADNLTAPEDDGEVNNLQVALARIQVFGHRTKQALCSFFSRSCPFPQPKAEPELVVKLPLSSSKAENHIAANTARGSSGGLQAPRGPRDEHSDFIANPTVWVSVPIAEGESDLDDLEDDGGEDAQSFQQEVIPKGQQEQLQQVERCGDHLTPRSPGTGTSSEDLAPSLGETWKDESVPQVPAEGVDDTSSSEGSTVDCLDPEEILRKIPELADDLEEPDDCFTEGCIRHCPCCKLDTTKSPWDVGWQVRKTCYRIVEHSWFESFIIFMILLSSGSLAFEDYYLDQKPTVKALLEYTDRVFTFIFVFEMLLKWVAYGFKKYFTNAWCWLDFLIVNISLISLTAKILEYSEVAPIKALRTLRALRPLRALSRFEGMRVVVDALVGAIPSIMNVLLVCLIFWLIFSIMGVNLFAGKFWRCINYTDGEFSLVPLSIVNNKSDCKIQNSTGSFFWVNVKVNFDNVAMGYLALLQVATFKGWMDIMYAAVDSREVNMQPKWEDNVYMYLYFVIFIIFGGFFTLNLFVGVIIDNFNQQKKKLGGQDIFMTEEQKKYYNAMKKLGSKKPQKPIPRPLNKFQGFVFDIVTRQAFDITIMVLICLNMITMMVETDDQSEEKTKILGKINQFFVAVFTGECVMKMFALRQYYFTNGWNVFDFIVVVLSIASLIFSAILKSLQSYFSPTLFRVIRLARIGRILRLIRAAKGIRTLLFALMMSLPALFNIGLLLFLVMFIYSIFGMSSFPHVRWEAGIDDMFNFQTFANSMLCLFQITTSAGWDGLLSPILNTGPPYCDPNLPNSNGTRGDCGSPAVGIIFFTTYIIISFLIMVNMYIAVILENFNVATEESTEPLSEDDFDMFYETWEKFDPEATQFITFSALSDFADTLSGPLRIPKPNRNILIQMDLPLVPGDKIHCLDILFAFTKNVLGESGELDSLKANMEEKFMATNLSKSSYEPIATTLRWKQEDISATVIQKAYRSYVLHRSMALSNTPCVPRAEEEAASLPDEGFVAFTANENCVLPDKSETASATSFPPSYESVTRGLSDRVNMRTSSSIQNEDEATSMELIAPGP

SMILES | IC50
O=C1NC[C@@H](C(=O)NC(CC2CCCCC2)c2ccc(F)c(Cl)c2F)N1 (single isomer, unassigned) [Example 54B, (S)-N-((R or S)-1-(3-chloro-2,4-difluorophenyl)-2-cyclohexylethyl)-2-oxoimidazolidine-4-carboxamide] | 50 nM
O=C1NC[C@@H](C(=O)NC(c2ccc(F)c(Cl)c2F)C2COC(C(F)(F)F)C2)N1 (single isomer, unassigned) [Example 79H, (S)-N-((R or S)-(3-chloro-2,4-difluoro-phenyl)((cis or trans)-5-(trifluoromethyl)tetrahydrofuran-3-yl)methyl)-2-oxoimidazolidine-4-carboxamide] | 3860 nM
O=C1NC[C@@H](C(=O)NC(COc2ccc(F)c(Cl)c2)c2ccc(F)c(Cl)c2)N1 (single isomer, unassigned) [Example 1B, (S)—N—((R or S)-2-(3-chloro-4-fluorophenoxy)-1-(3-chloro-4-fluorophenyl)ethyl)-2-oxoimidazolidine-4-carboxamide] | 22 nM
O=C1NC[C@@H](C(=O)NC(CC2CCC(F)(F)CC2)c2ccc(F)c(Cl)c2F)N1 (single isomer, unassigned) [Example 25B, (S)-N-((R or S)-1-(3-chloro-2,4-difluorophenyl)-2-(4,4-difluorocyclohexyl)ethyl)-2-oxoimidazolidine-4-carboxamide] | 189 nM
O=C1NC[C@@H](C(=O)NC(c2ccc(F)c(C(F)F)n2)c2ccc(F)c(Cl)c2F)N1 (single isomer, unassigned) [Example 63B, (S)-N-((R or S)-(3-chloro-2,4-difluorophenyl)(6-(difluoromethyl)-5-fluoropyridin-2-yl)methyl)-2-oxoimidazolidine-4-carboxamide] | 16 nM
O=C1NC[C@@H](C(=O)NC(c2ccc(F)c(Cl)c2)C2Cc3ccc(Cl)cc32)N1 (stereo partly drawn) [Example 71, (4S)-N-((3-chloro-4-fluorophenyl)(4-chlorobicyclo[4.2.0]-octa-1(6),2,4-trien-7-yl)methyl)-2-oxoimidazolidine-4-carboxamide] | 44 nM
O=C1NC[C@@H](C(=O)NC(COC2CCC(F)(F)CC2)c2ccc(F)c(Cl)c2)N1 (single isomer, unassigned) [Example 29B, (4S)-N-{1-((R or S)-3-chloro-4-fluorophenyl)-2-[(4,4-difluoro-cyclohexyl)oxy]ethyl}-2-oxoimidazolidine-4-carboxamide] | 161 nM
O=C1NC[C@@H](C(=O)NC(c2cnc(OC(F)F)nc2)c2ccc(F)c(Cl)c2F)N1 (single isomer, unassigned) [Example 64B, (S)-N-((R or S)-(3-chloro-2,4-difluorophenyl)(2-(difluoromethoxy)pyrimidin-5-yl)methyl)-2-oxoimidazolidine-4-carboxamide] | 805 nM
Cc1nc2cc(C(NC(=O)[C@@H]3CNC(=O)N3)c3ccc(F)c(Cl)c3)ccc2s1 (single isomer, unassigned) [Example 66A, (S)—N—((R or S)-(3-chloro-4-fluorophenyl)(2-methylbenzo[d]thiazol-5-yl)methyl)-2-oxoimidazolidine-4-carboxamide] | 63 nM
O=C1NC[C@@H](C(=O)NC(c2ccc(OC(F)(F)F)nc2)c2ccc(F)c(Cl)c2F)N1 (single isomer, unassigned) [Example 24A, (4S)-N-{(R or S)-(3-chloro-2,4-difluorophenyl)[6-(trifluoromethoxy)pyridin-3-yl]methyl}-2-oxoimidazolidine-4-carboxamide] | 3.1 nM
O=C1NC[C@@H](C(=O)NC(c2ccc(F)c(Cl)c2)c2ccc(Cl)c(C(F)(F)F)n2)N1 (single isomer, unassigned) [Example 62A, (S)-N-((R or S)-(3-chloro-4-fluorophenyl)(5-chloro-6-(trifluoromethyl)pyridin-2-yl)methyl)-2-oxoimidazolidine-4-carboxamide] | 8 nM
C[C@@H]1C[C@H](C(NC(=O)[C@@H]2CNC(=O)N2)c2ccc(F)c(Cl)c2)C[C@H](C)N1CC(F)(F)F (single isomer, unassigned) [Example 15B, (S)-N-((R or S)-(3-chloro-4-fluoro-phenyl)(cis-2,6-dimethyl-1-(2,2,2-trifluoroethyl)piperidin-4-yl)methyl)-2-oxoimidazolidine-4-carboxamide] | 965 nM
O=C1NC[C@@H](C(=O)NC(c2ccc(OC(F)(F)F)nc2)c2ccc(F)c(Cl)c2F)N1 (single isomer, unassigned) [Example 24B, (4S)-N-{(R or S)-(3-chloro-2,4-difluorophenyl)[6-(trifluoromethoxy)pyridin-3-yl]methyl}-2-oxoimidazolidine-4-carboxamide] | 41 nM
O=C1NC[C@@H](C(=O)NC(c2ccc(Cl)cc2)c2cc(C(F)(F)F)c(F)cn2)N1 (single isomer, unassigned) [Example 59B, (S)-N-((R or S)-(4-chlorophenyl)(5-fluoro-4-(trifluoromethyl)pyridin-2-yl)methyl)-2-oxo-imidazolidine-4-carboxamide] | 62 nM
O=C1NC[C@@H](C(=O)NC(c2ccc(OC(F)(F)F)c(Cl)c2)c2cnn(C(F)(F)F)c2)N1 (single isomer, unassigned) [Example 41A, (S)—N—((R or S)-(3-chloro-4-(trifluoromethoxy)phenyl)(1-(trifluoromethyl)-1H-pyrazol-4-yl)-l3-methyl)-2-oxoimidazolidine-4-carboxamide] | 1.7 nM
O=C1NC[C@@H](C(=O)NC(c2ccc(OC(F)(F)F)cc2)c2cccc(Cl)c2)N1 (single isomer, unassigned) [Example 9B, (4S)—N—((R or S)-(3-chlorophenyl)(4-(trifluoromethoxy)-phenyl)methyl)-2-oxoimidazolidine-4-carboxamide] | 2 nM
CN1CCC(C(NC(=O)[C@@H]2CNC(=O)N2)c2ccc(F)c(Cl)c2F)CC1C(F)(F)F (single isomer, unassigned) [Example 78C, (S)-N-((R or S)-(3-chloro-2,4-difluoro-phenyl)((cis or trans)-1-methyl-2-(trifluoro-methyl)piperidin-4-yl)methyl)-2-oxoimidazolidine-4-carboxamide] | 8630 nM
CC1(C)CC(C(NC(=O)[C@@H]2CNC(=O)N2)c2ccc(Cl)cc2)CCN1CC(F)(F)F (single isomer, unassigned) [Example 91A, (4S)—N—((R or S)(4-chlorophenyl)((R or S)2,2-dimethyl-1-(2,2,2-trifluoroethyl)piperidin-4-yl)methyl)-2-oxoimidazolidine-4-carboxamide] | 289 nM
O=C1NC[C@@H](C(=O)NC(c2ccc(F)c(Cl)c2)C2C3CN(CC(F)(F)F)CC32)N1 (single isomer, unassigned) [Example 77B, (4S)-N-((1(R or S))-(3-chloro-4-fluorophenyl)(3-(2,2,2-trifluoroethyl)-3-azabicyclo[3.1.0]hexan-6-yl)methyl)-2-oxoimidazolidine-4-carboxamide] | 267 nM
O=C1NC[C@@H](C(=O)NC(c2ccc(Cl)cc2)c2cnc(C(F)(F)F)[nH]2)N1 (single isomer, unassigned) [Example 22B, (S)—N—((R or S)-(4-chlorophenyl)(2-(trifluoromethyl)-1H-imidazol-4-yl)methyl)-2-oxoimidazolidine-4-carboxamide] | 6410 nM
O=C1NC[C@@H](C(=O)NC(c2ccc(F)c(Cl)c2)c2ccc(Cl)c(C(F)(F)F)n2)N1 (single isomer, unassigned) [Example 62B, (S)-N-((R or S)-(3-chloro-4-fluorophenyl)(5-chloro-6-(trifluoromethyl)pyridin-2-yl)methyl)-2-oxoimidazolidine-4-carboxamide] | 0.4 nM
O=C1NC[C@@H](C(=O)NC(c2ccc(F)c(Cl)c2F)C2CCN(C3(C(F)(F)F)CC3)CC2)N1 (single isomer, unassigned) [Example 5A, (S)—N—((R or S)-(3-chloro-2,4-difluorophenyl)(1-(1-(trifluoromethyl)-cyclopropyl)piperidin-4-yl)methyl)-2-oxoimidazolidine-4-carboxamide] | 1.6 nM
O=C1NC[C@@H](C(=O)NC(c2ccc(F)c(Cl)c2)c2ccc(F)c(Cl)c2)N1 [Example 61, (S)-N-(bis(3-chloro-4-fluorophenyl)methyl)-2-oxoimidazolidine-4-carboxamide] | 0.7 nM
O=C1NC[C@@H](C(=O)NC(c2ccc(OCC(F)(F)F)nn2)c2ccc(F)c(Cl)c2F)N1 (single isomer, unassigned) [Example 50B, (4S)—N—((R or S)-(3-chloro-2,4-difluorophenyl)(6-(2,2,2-trifluoroethoxy)pyridazin-3-yl)methyl)-2-oxoimidazolidine-4-carboxamide] | 206 nM
O=C1NC[C@@H](C(=O)NC(c2ccc(F)c(Cl)c2)[C@@H]2CC[C@H]2C(F)(F)F)N1 (single isomer, unassigned) [Example 67B, (S)-N-((R or S)-(3-chloro-4-fluoro-phenyl)(trans-2-(trifluoromethyl)cyclobutyl)methyl)-2-oxoimidazolidine-4-carboxamide] | 965 nM
O=C1NC[C@@H](C(=O)NC(CC2CCC(F)(F)CC2)c2ccc(F)c(Cl)c2F)N1 (single isomer, unassigned) [Example 25A, (S)-N-((R or S)-1-(3-chloro-2,4-difluorophenyl)-2-(4,4-difluorocyclohexyl)ethyl)-2-oxoimidazolidine-4-carboxamide] | 22 nM
O=C1NC[C@@H](C(=O)NC(CC2CCCOC2)c2ccc(F)c(Cl)c2F)N1 (single isomer, unassigned) [Example 26B, (S)-N-((R or S)-1-(3-chloro-2,4-difluorophenyl)-2-((R or S)-tetrahydro-2H-pyran-3-yl)ethyl)-2-oxoimidazolidine-4-carboxamide] | 22200 nM
